Here are results for 4 compounds from article PMC8333425, “Discovery of a dual Ras and ARF6 inhibitor from a GPCR endocytosis screen” (Nature Communications, 2021).

The target of assay [1] is H-Ras (Homo sapiens, UniProt P01112). Briefly: In vitro mant-GTP exchange assay, purified H-Ras with purified SOS1. It counts as biochemical. Set-up: the cDNA of H-Ras (full length) was obtained by RT-PCR of HEK293SL; GST (N); host or cells: E. coli BL21. To be noted: 50 μM. As for the experimental part:
Ras activity was assessed in a 384-well black bottom plate using the mant-GTP exchange factor assay that measures the uptake of the fluorescent nucleotide analog N-methylanthraniloyl-GTP (mant-GTP) into GTPases. For Ras activation, 2X exchange buffer, 1.66 μg of purified pGEX-6P-1-H-Ras or pGEX-6P-1-K-Ras-WT or pGEX-6P-1-K-Ras-Y32A were added per well in presence of DMSO, different concentrations of Rasarfin (as indicated) or 50 µM of compounds 21.4, 21.7, or 21.8. Using the Infinite 200 Pro plate reader (Tecan) with filters set at 360 nm and 440 nm for detecting the excitation and emissions, respectively, and temperature set at 20 °C, 5 readings were recorded every 5 s before the addition of either H2O, 40 mM EDTA or 0.66 μg purified SOS1. The fluorescence of mant-GTP uptake was measured every 30 sec for 30 min and quantified as the delta relative fluorescence units (RFU), which was calculated as the RFU post-addition minus the 5 averaged RFU pre-addition, per condition.

For assay [2], the system named is ERK1/2 activation by AT1R. The experiment in a line: Western blot of AT1R-mediated ERK1/2 phosphorylation. To be noted: 50 μM. It counts as cell-based, human. On the procedure: HEK293SL cells (10^5 cells per well) were seeded in a poly-L-lysine-coated six-well plate and transiently transfected with 3 μg Flag-AT1R, HA-B2R or HA-β2AR and/or 500 ng Flag-MEK1-WT, Flag-MEK1-DD, Flag-BRAF-WT, Flag-BRAF-V600E, Flag-K-Ras-WT, Flag-K-Ras-G12V, HA-ARF6-WT, or HA-ARF6-T27N. Gαq/11 KO and βarr1/2 KO cells were seeded onto 100 mm dishes at a density of 10^6 cells per dish. Next day, cells were transfected with 3 μg AT1R alone or along with 500 ng of β-arrestin2 using PEI. After 18 h of transfection, cells were detached and re-seeded onto poly-L-lysine coated 12-well plates (~1.5–2 × 10^5cells/well) for subsequent experiments. Forty-eight hours post transfection, in a 37 °C water bath, cells were serum-starved for 30 min, pretreated with DMSO (0.1%) or compound 21/Rasarfin (50 µM or at indicated concentrations) for 30 min, then stimulated or not with the indicated ligand [AngII (1 µM), BK (1 µM), Iso (10 µM) or EGF (100 ng/ml)] at indicated times. Cells were put on ice, washed with PBS and solubilized in 2x laemmli buffer (250 mM Tris–HCl pH 6.8, 2% SDS (w/v), 10% glycerol (v/v), 0.01% bromophenol blue (w/v) and 5% β-mercaptoethanol (v/v)) by heating at 65 °C for 15 min. Lysates were resolved on 10 or 14% SDS-PAGE, transferred to nitrocellulose membranes and immunoblotted for p-ERK1/2, ERK1/2, p-Akt, Akt, HA, Myc, β-actin or FLAG. ImageLab 5.2 software was used to quantify the digital blots as fold of the phosphorylated protein over total protein, which were then normalized as indicated in the figure legends. Uncropped immunoblots are provided in the Source Data file.

In a further assay the test system is AT1R. The experiment in a line: Endosomal BRET assay of AngII-mediated AT1R internalization (AT1R-RlucII / Endo-rGFP; HTS, validation, concentration-response). The assay is classed as cell-based, human. To be noted: 50 μM. The text has this:
We performed a HT campaign in HEK293 cells using the bystander endosomal BRET sensor, which consists of a Renilla luciferase (RlucII)-tagged AT1R and an acceptor renilla GFP (rGFP) anchored to endosomes through an Endofin-FYVE (Endo-rGFP) domain[12]. AngII-mediated trafficking of AT1R to endosomes was screened against commercial libraries of ~115,000 small molecules (Fig. 1a and Supplementary Data 1). Because our assay is based on luminescence and fluorescence, we excluded 6610 compounds that quenched more than 50% of the luciferase or GFP signals. After excluding 5 AT1R antagonists, we conserved hit compounds blocking by more than 40%, as well as those potentiating by more than 100% receptor internalization. From this collection of 943 compounds, a second validation on AT1R internalization was performed using the same BRET assay, as well as on the agonist-mediated B2R internalization, this time using B2R-RlucII and Endo-rGFP. Only compounds that were revalidated on AT1R and affected B2R endocytosis were kept, which included forty hits (20 potentiators and 20 inhibitors) (Fig. 1b and Supplementary Data 2). We focused on inhibitors that were commercially available at the beginning of the project and tested their cell toxicity by microscopy, looking at cells expressing B2R tagged with YFP, which highlights cell contours and potential morphological changes, such as rounding up of cells following treatment with 50 μM of the compounds that may have indicated cell death. None of the inhibitors tested caused abnormal cell morphological changes when cells were treated with compounds as compared to DMSO-treated cells. Inhibitors were also assessed in terms of structure novelty, derivatization potential, and commercial availability of analogs (within 95–98% similarity from Tanimoto metric, Sci-Finder, https://scifinder-n.cas.org), for structure-activity relationship studies (SAR). They were scored 1–5, from best to worst. We excluded compounds with potential nucleophilic reactivity (e.g., Michael addition: compounds 7, 26, and 27), those reported to have biological activities (compounds 8, 20, 25, 30, and 35) and/or showing autofluorescence (compound 26). Compound 19 ranked high, but only had one other molecule with a similar structure available. Although other molecules could be interesting in their own rights as endocytosis inhibitors (e.g., compounds 1, 9, 11, 12, 13, 24, 31, and 37), we focused on compound 21 (Fig. 1c) because not only did it rank high in our analysis, but it was also the only compound with substantially more similar analogs commercially available at the time of these investigations. In the screen and the follow-up validation assay, 21 inhibited more than 50% AT1R internalization and more than 65% B2R internalization (Supplementary Data 2). […] Because β-arrestins are critically involved in GPCR endocytosis and trafficking in cells, we assessed 21’s effects on β-arrestins’ recruitment to AT1R and B2R at the PM using a BRET assay, as well as their trafficking into endosomes by microscopy.
The chemical library used for initial screening was from Chembridge DiverSet™ (60,000 compounds), Maybridge HitFinder™ (16,000 compounds), Maybridge (selected, 16,000 compounds), SPECS (selected, 16000 compounds), Microsource Discovery Spectrum (2000 compounds), Biomol (natural products, 500 compounds), Prestwick (commercialized products, 1120 compounds), SIGMA LopacTM (1280 compounds) and internal collection (synthesized at Université de Montréal-IRIC, ~4000 compounds). Compounds were all assigned an Université de Montréal number (UM) for internal use. Screen was performed at IRIC HTS facility. KINOMEscan™ profiling was serviced by Eurofin/DiscoverX (San Diego, USA).
HEK293SL cells were seeded at a density of 7.5 × 10^5 cells per 100-mm dish and 24 h later, transiently transfected as such. […]

Assay [3] has as its system MDA-MB-231 cells. The experiment in a line: Cell proliferation assay (IncuCyte confluence), MDA-MB-231. To be noted: 10 µM. It counts as cell-based, human. As for the experimental part: Cell proliferation was measured by a label-free, non-invasive cellular confluence assay using IncuCyte Live-Cell Imaging Systems (Essen Bioscience, Ann Arbor, MI, USA). MDA-MB-231 breast cancer and A549 lung carcinomas cells (1500 cells in 150 μl/well) were seeded overnight on a clear 96-well plate. Twenty-four hours later, the cells were treated with 0.1% DMSO, or different concentrations of Rasarfin (as indicated), or 10 µM of 21.4 or 21.8 for 96 h total. The plate was placed in an XL-3 incubation chamber maintained at 37 °C and the cells were photographed using a ×4 objective, every 3 h for 4 days. Cell confluence was calculated using IncuCyte S3 software (2019A) and cell proliferation was expressed as an increase in the percentage of confluence. Experiments were done in triplicate and repeated three times.

The subject of assay [4] is MDA-MB-231 cells. The experiment in a line: Cell viability assay (MTT), MDA-MB-231. It counts as cell-based, human. To be noted: for cell viability (MTT signal): S_Fig12f, listed as Comp 21.4. As for the experimental part:
MDA-MB-231 breast cancer cells and A549 lung carcinomas (1500 cells in 150 μl/well) were seeded overnight on a clear 96-well plate. Twenty-four hours later, the cells were treated with 0.1% DMSO, or different concentrations of Rasarfin (as indicated), or 10 µM of 21.4, 21.8 (MDA-MB-231 breast cancer cells) or Doxorubicin for the indicated times at 37 °C. At each time point, 10 μl of 5 mg/ml MTT was added to each well and the plates were incubated for an additional 4 h at 37 °C. The absorbance at 590 nm was measured by plate reader. Experiments were done in triplicate and repeated three times.

In assay [5] the test system is H-Ras. Set-up: method as in PMID 27265506. To be noted: cited from earlier work.
The test system of the next assay is Ras. Set-up: method as in PMID 22431598. To be noted: cited from earlier work.

Values joined by “and” are separate entries in the source; they are usually repeats but may differ in a detail not shown here. Equal entries are not always repeated. “Also recorded” adds a separate entry of the source.

H-Ras (Homo sapiens, UniProt P01112), sequence (P01112 whole entry): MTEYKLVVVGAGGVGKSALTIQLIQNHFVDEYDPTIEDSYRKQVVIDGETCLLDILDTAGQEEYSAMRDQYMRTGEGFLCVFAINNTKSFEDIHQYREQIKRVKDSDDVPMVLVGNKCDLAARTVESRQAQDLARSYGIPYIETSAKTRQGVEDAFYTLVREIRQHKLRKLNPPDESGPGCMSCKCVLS

Take `CC(C)C(=O)N1CCN(c2ccc(NC(=O)c3cc4ccccc4o3)cc2)CC1` [Compound 21.4]: on H-Ras [1], the “Ras exchange activity, mant-GTP loading into H-Ras with SOS1 (Fig. 8c)” value is “lacks Ras and MAPK inhibitory activities; also recorded: had no effect”. Moreover, the “inhibition of AT1R-mediated ERK1/2 (MAPK) activation (Fig. 8b)” value in assay [2] was “lacks Ras and MAPK inhibitory activities”. The “inhibition of AT1R internalization into endosomes (Fig. 8a)” value with AT1R is recorded as “did not inhibit AT1R internalization”. Further, the “MDA-MB-231 cell proliferation (confluency)” value with MDA-MB-231 cells [3] is recorded as “only 21.8, which efficiently inhibits MAPK as well as Rasarfin, inhibited cell proliferation”. Besides, in the assay with MDA-MB-231 cells [4] (10 µM), the “metabolic activity of MDA-MB-231 cells (MTT)” value is on record as “moderately decreasing the metabolic activity of cancer cells”. Further, the “cell viability (MTT signal)” value in the assay with MDA-MB-231 cells [4] (24h) is 0.2634 and 0.244 and 0.2; in the assay with MDA-MB-231 cells [4] (48h) it was 0.339 and 0.3215 and 0.2045.

On to `CCC(=O)N1CCN(c2ccc(NC(=O)c3cccs3)cc2Cl)CC1` [Compound 21.7], for which the “Ras exchange activity, mant-GTP loading into H-Ras with SOS1 (Fig. 8c)” value at H-Ras [1] is on record as “had no effect”. Also, the “inhibition of AT1R-mediated ERK1/2 (MAPK) activation (Fig. 8b)” value in assay [2] is “lost their ability to inhibit MAPK”. Also, the “inhibition of AT1R internalization into endosomes (Fig. 8a)” value with AT1R is “loss of compounds’ efficacy to inhibit AT1R internalization”.

Turning to NAV-2729, the “block of H-Ras” value in the assay with H-Ras [5] is reported as “inefficacious to block H-Ras”.

With `Cc1[nH]c2cc(Cl)cc(Cl)c2c1CCN` [DCAI, 4,6-dichloro-2-methyl-3-aminoethyl-indole], in the assay with Ras, the “SOS binding to Ras and nucleotide exchange” value is “blocks SOS binding to Ras but only inhibits the nucleotide exchange catalyzed by SOS”.
